{
  "source": "patent US8546421B1",
  "about": "“Oncogenic-RAS-signal dependent lethal compounds” (The Trustees of Columbia University in the City of New York, priority 2007, dated 2013)",
  "key": {"[1]": {"test_system": "COLO 205", "assay": "NCI60 anti-cancer screening"}, "[2]": {"test_system": "OVCAR-4", "assay": "NCI60 anti-cancer screening"}, "[3]": {"test_system": "BJ-TERT/LT/ST/RAS^V12 cells", "assay": "Alamar blue growth inhibition in dilution series", "type": "cell-based, human", "details": "Homo sapiens, alamar blue"}, "[4]": {"test_system": "UACC-62", "assay": "NCI60 anti-cancer screening"}, "[5]": {"test_system": "DU-145", "assay": "NCI60 anti-cancer screening"}, "[6]": {"test_system": "MCF-7", "assay": "NCI60 anti-cancer screening"}, "[7]": {"test_system": "MOLT-4", "assay": "NCI60 anti-cancer screening"}, "[8]": {"test_system": "HS 578T", "assay": "NCI60 anti-cancer screening"}, "[9]": {"test_system": "MALME-3M", "assay": "NCI60 anti-cancer screening"}, "[10]": {"test_system": "CCRF-CEM", "assay": "NCI60 anti-cancer screening"}, "[11]": {"test_system": "HL-60(TB)", "details": "Leukemia"}, "[12]": {"test_system": "SK-MEL-28", "assay": "NCI60 anti-cancer screening"}, "[13]": {"test_system": "KM12", "assay": "NCI60 anti-cancer screening"}, "[14]": {"test_system": "BJ-derived cell lines (BJ-TERT/LT/ST/RAS^V12 cells)", "assay": "Vi-Cell analysis (trypan blue exclusion)", "type": "cell-based, human", "details": "24 hours", "method": "200,000 cells were seeded in 6-well plates and treated with the indicated amount of 2-fold dilution series concentration of a candidate compound in 2 mL BJ growth medium. After 24 hours, cells were released with trypsin/EDTA, harvested in 1.1 mL growth medium, and transferred to a Vi-Cell (Beckman Coulter) disposable cup. After, trypan blue staining, 100 images of sample were taken and analysis of the images was carried out automatically by a Vi-Cell cell viability analyzer (Beckman Coulter)."}, "[15]": {"test_system": "HCT-116", "assay": "NCI60 anti-cancer screening"}, "[16]": {"test_system": "NCI-H522", "assay": "NCI60 anti-cancer screening"}, "[17]": {"test_system": "786-0", "assay": "NCI60 anti-cancer screening"}, "[18]": {"test_system": "T-47D", "assay": "NCI60 anti-cancer screening"}, "[19]": {"test_system": "SF-268", "assay": "NCI60 anti-cancer screening"}, "[20]": {"test_system": "BJ-TERT/LT/ST/RAS^V12 cells", "assay": "Counter screening with iron chelators", "type": "cell-based, human", "details": "DFOM and three additional iron-binding compounds; 24 hours", "method": "Cells were treated with iron chelators by transferring 4 μL of 1 mM deferoxamine mesylate (Calbiochem, cat.#252750), 500 μM compound 1a (Chembridge, cat.#5175092), 1 mM compound 2 (Ryan Scientific, cat.#LT01784723), or 100 μM compound 311 (Chembridge, cat.#5135701) in growth media to the assay plate. Then, 4 μL was transferred from the ‘10× lethal plate’ (described in ‘counter screening with biologically active compounds’) to the assay plate in order to induce cell death. Assay plates were incubated for 24 hours and alamar blue was added to the plates at a final concentration of 10%."}, "[21]": {"test_system": "SR", "assay": "NCI60 anti-cancer screening"}, "[22]": {"test_system": "LOX IMVI", "assay": "NCI60 anti-cancer screening"}, "[23]": {"test_system": "MDA-MB-435", "assay": "NCI60 anti-cancer screening"}, "[24]": {"test_system": "BJ cell system (BJ-TERT, BJ-TERT/LT/ST, BJ-TERT/LT/ST/RAS^V12, DRD cells)", "assay": "Alamar blue potency and selectivity in the engineered BJ cell system", "details": "alamar blue", "experimental": "Empty “step-daughter plates” were filled with 50 μL DMEM, except for columns 3 and 13, where 100 μL of hit compound solution were cherry-picked from daughter plates. After compound transfer, 2-fold dilution series across columns 3 through 12 and columns 13 through 22 was made by transferring 50 μL of compound solution to the next column successively (10-point dilution series), with extensive mixing. Hit-picking and 2-fold dilution series were carried out using Biomek FX Span-8 module (Beckman Coulter). Assay plates were prepared by seeding 1,000 BJ-TERT, BJ-TERT/LT/ST, and BJ-TERT/LT/ST/RAS^V12 cells per well in 36 μL growth medium. Cells in assay plates were treated with compounds from step-daughter plates by transferring 4 μL. The final concentration of the compound was 5.33 μg/mL to 0.01 μg/mL in this 10-point, 2-fold dilution series. Assay plates were returned to the culture incubator and maintained for 48 hours before adding alamar blue.\nFresh daughter plates were made from the mother plate and cherry-picked hits from the first round, 2-fold dilution series experiment as described above. Assay plates were prepared by seeding 1,000 BJ-TERT, BJ-TERT/LT/ST, BJ-TERT/LT/ST/RAS^V12 or BJ-TERT/p53DD/CDK4/cyclinD1/ST/RAS^V12 (DRD) cells per well in 32 μL growth media. Cells in the assay plates were treated with compounds from the step-daughter plate by transferring 8 μL solution. The final concentration of the compound was 10.66 μg/mL to 0.02 μg/mL in a 10-point, 2-fold dilution series manner. Assay plates were returned to the culture incubator and maintained for 48 hours before adding alamar blue.\nCells were seeded in 384-well assay plates, treated with candidate compounds, and incubated in the culture incubator in 40 μL culture volume per well. […] Plates were incubated further for 16 hours to allow reduction of alamar blue, which results in the generation of red fluorescence. The fluorescence intensity was determined using a Victor 3 plate reader (Perkin Elmer) with a 535 nm excitation filter and a 590 nm emission filter.\nIn the subsequent two-fold dilution series testing, selectivity was calculated as the ratio of GI50 values in BJ-TERT/LT/ST and BJ-TERT/LT/ST/RAS^V12 cells. […] DRD cells are also derived from BJ primary cells and the effects of mutations in both lines should be similar."}, "[25]": {"test_system": "NCI-H23", "assay": "NCI60 anti-cancer screening"}, "[26]": {"test_system": "SK-MEL-5", "assay": "NCI60 anti-cancer screening"}},
  "data": [
    {"smiles": "C=C1CCC2C(C)(C)CCC[C@]2(C)C1CC/C(C)=C\\CC/C(C)=N/NC(N)=S", "note": "(stereo partly drawn) [Compound 36]", "values": [
      {"measurement": "GI 100%", "setting": "[1]; COLO 205, Colon Cancer", "value": 0.451, "unit": "µM"},
      {"measurement": "GI50", "setting": "[1]; Homo sapiens, COLO 205", "value": 184, "unit": "nM"},
      {"measurement": "CC50", "setting": "[1]; Homo sapiens, COLO 205, read-out: LC 50%", "value": 1460, "unit": "nM"},
      {"measurement": "GI50", "setting": "[2]; Homo sapiens, OVCAR-4", "value": 147, "unit": "nM"},
      {"measurement": "CC50", "setting": "[2]; Homo sapiens, OVCAR-4, read-out: LC 50%", "value": 1310, "unit": "nM"},
      {"measurement": "GI 100%", "setting": "[2]; OVCAR-4, Ovarian Cancer", "value": 0.405, "unit": "µM"},
      {"measurement": "IC90", "setting": "[3]", "value": 1, "unit": "µg/mL"},
      {"measurement": "GI50", "setting": "[4]; Homo sapiens, UACC-62", "value": 214, "unit": "nM"},
      {"measurement": "CC50", "setting": "[4]; Homo sapiens, UACC-62, read-out: LC 50%", "value": 853, "unit": "nM"},
      {"measurement": "GI 100%", "setting": "[4]; UACC-62, Melanoma", "value": 0.427, "unit": "µM"},
      {"measurement": "GI 100%", "setting": "[5]; DU-145, Prostate Cancer", "value": 2.35, "unit": "µM"},
      {"measurement": "GI50", "setting": "[5]; Homo sapiens, DU-145", "value": 1140, "unit": "nM"},
      {"measurement": "CC50", "setting": "[5]; Homo sapiens, DU-145, read-out: LC 50%", "value": 4840, "unit": "nM"},
      {"measurement": "GI50", "setting": "[6]; Homo sapiens, MCF7", "value": 265, "unit": "nM"},
      {"measurement": "CC50", "setting": "[6]; Homo sapiens, MCF7, read-out: LC 50%", "value": 3830, "unit": "nM"},
      {"measurement": "GI 100%", "setting": "[6]; MCF-7, Breast Cancer", "value": 1.34, "unit": "µM"},
      {"measurement": "GI50", "setting": "[7]; Homo sapiens, MOLT-4", "value": 77.3, "unit": "nM"},
      {"measurement": "CC50", "setting": "[7]; Homo sapiens, MOLT-4, read-out: LC 50%", "value": 7390, "unit": "nM"},
      {"measurement": "GI 100%", "setting": "[7]; MOLT-4, Leukemia", "value": 1.1, "unit": "µM"},
      {"measurement": "GI 100%", "setting": "[8]; HS 578T, Breast Cancer", "value": 2.27, "unit": "µM"},
      {"measurement": "GI50", "setting": "[8]; Homo sapiens, Hs-578T", "value": 420, "unit": "nM"},
      {"measurement": "CC50", "setting": "[8]; Homo sapiens, Hs-578T, read-out: LC 50%", "value": "> 10000", "unit": "nM"},
      {"measurement": "GI50", "setting": "[9]; Homo sapiens, Malme-3M", "value": 550, "unit": "nM"},
      {"measurement": "CC50", "setting": "[9]; Homo sapiens, Malme-3M, read-out: LC 50%", "value": 4570, "unit": "nM"},
      {"measurement": "GI 100%", "setting": "[9]; MALME-3M, Melanoma", "value": 1.83, "unit": "µM"},
      {"measurement": "GI50", "setting": "[10]; Homo sapiens", "value": 165, "unit": "nM"},
      {"measurement": "CC50", "setting": "[10]; Homo sapiens, read-out: LC 50%", "value": 5570, "unit": "nM"},
      {"measurement": "GI 100%", "setting": "[10]; Leukemia", "value": 0.705, "unit": "µM"},
      {"measurement": "GI 100%", "setting": "[11]", "value": 0.545, "unit": "µM"},
      {"measurement": "GI50", "setting": "[12]; Homo sapiens, SK-MEL-28", "value": 239, "unit": "nM"},
      {"measurement": "CC50", "setting": "[12]; Homo sapiens, SK-MEL-28, read-out: LC 50%", "value": 2070, "unit": "nM"},
      {"measurement": "GI 100%", "setting": "[12]; SK-MEL-28, Melanoma", "value": 0.592, "unit": "µM"},
      {"measurement": "GI50", "setting": "[13]; Homo sapiens, KM12", "value": 469, "unit": "nM"},
      {"measurement": "CC50", "setting": "[13]; Homo sapiens, KM12, read-out: LC 50%", "value": 4470, "unit": "nM"},
      {"measurement": "GI 100%", "setting": "[13]; KM12, Colon Cancer", "value": 1.8, "unit": "µM"},
      {"measurement": "potency and selectivity by trypan blue exclusion (in words)", "setting": "[14]", "value": "confirmed the growth inhibitory potency and selectivity"},
      {"measurement": "GI 100%", "setting": "[15]; HCT-116, Colon Cancer", "value": 1.11, "unit": "µM"},
      {"measurement": "GI50", "setting": "[15]; Homo sapiens, HCT-116", "value": 252, "unit": "nM"},
      {"measurement": "CC50", "setting": "[15]; Homo sapiens, HCT-116, read-out: LC 50%", "value": 3320, "unit": "nM"},
      {"measurement": "GI50", "setting": "[16]; Homo sapiens, NCI-H522", "value": 82.9, "unit": "nM"},
      {"measurement": "CC50", "setting": "[16]; Homo sapiens, NCI-H522, read-out: LC 50%", "value": 1180, "unit": "nM"},
      {"measurement": "GI 100%", "setting": "[16]; NCI-H522, Non-small cell lung carcinoma", "value": 0.309, "unit": "µM"},
      {"measurement": "GI 100%", "setting": "[17]; 786-0, Renal Cancer", "value": 0.907, "unit": "µM"},
      {"measurement": "GI50", "setting": "[17]; Homo sapiens, 786-0", "value": 252, "unit": "nM"},
      {"measurement": "CC50", "setting": "[17]; Homo sapiens, 786-0, read-out: LC 50%", "value": 3020, "unit": "nM"},
      {"measurement": "GI50", "setting": "[18]; Homo sapiens, T47D", "value": 701, "unit": "nM"},
      {"measurement": "CC50", "setting": "[18]; Homo sapiens, T47D, read-out: LC 50%", "value": "> 10000", "unit": "nM"},
      {"measurement": "GI 100%", "setting": "[18]; T-47D, Breast Cancer", "value": 3.21, "unit": "µM"},
      {"measurement": "GI50", "setting": "[19]; Homo sapiens, SF-268", "value": 1090, "unit": "nM"},
      {"measurement": "CC50", "setting": "[19]; Homo sapiens, SF-268, read-out: LC 50%", "value": 5740, "unit": "nM"},
      {"measurement": "GI 100%", "setting": "[19]; SF-268, CNS Cancer", "value": 2.5, "unit": "µM"},
      {"measurement": "effect of iron chelators on compound activity / induced cell death", "setting": "[20]", "value": "significantly inhibited"},
      {"measurement": "GI50", "setting": "[21]; Homo sapiens", "value": 1320, "unit": "nM"},
      {"measurement": "CC50", "setting": "[21]; Homo sapiens, read-out: LC 50%", "value": 8780, "unit": "nM"},
      {"measurement": "GI 100%", "setting": "[21]; Leukemia", "value": 3.4, "unit": "µM"},
      {"measurement": "GI50", "setting": "[22]; Homo sapiens", "value": 203, "unit": "nM"},
      {"measurement": "CC50", "setting": "[22]; Homo sapiens, read-out: LC 50%", "value": 1320, "unit": "nM"},
      {"measurement": "GI 100%", "setting": "[22]; Melanoma", "value": 0.478, "unit": "µM"},
      {"measurement": "GI50", "setting": "[23]; Homo sapiens, MDA-MB-435", "value": 175, "unit": "nM"},
      {"measurement": "CC50", "setting": "[23]; Homo sapiens, MDA-MB-435, read-out: LC 50%", "value": 3000, "unit": "nM"},
      {"measurement": "GI 100%", "setting": "[23]; MDA-MB-435, Breast Cancer", "value": 0.781, "unit": "µM"},
      {"measurement": "degree of selectivity between BJ-TERT/LT/ST/RAS^V12 and BJ-TERT", "setting": "[24]", "value": "up to 16 fold"},
      {"measurement": "growth inhibitory activity and selectivity in the BJ cell system (in words)", "setting": "[24]; structural analogs and hits", "value": "slightly lower potency and selectivity than the original hit"},
      {"measurement": "GI50", "setting": "[25]; Homo sapiens, NCI-H23", "value": 440, "unit": "nM"},
      {"measurement": "CC50", "setting": "[25]; Homo sapiens, NCI-H23, read-out: LC 50%", "value": 4230, "unit": "nM"},
      {"measurement": "GI 100%", "setting": "[25]; NCI-H23, Non-small cell lung carcinoma", "value": 1.65, "unit": "µM"},
      {"measurement": "GI50", "setting": "[26]; Homo sapiens, SK-MEL-5", "value": 209, "unit": "nM"},
      {"measurement": "CC50", "setting": "[26]; Homo sapiens, SK-MEL-5, read-out: LC 50%", "value": 3050, "unit": "nM"},
      {"measurement": "GI 100%", "setting": "[26]; SK-MEL-5, Melanoma", "value": 0.898, "unit": "µM"}
    ]}
  ]
}
